The METLIN SMRT retention time set (Domingo-Almenara et al. 2019)

Experiment: gradient 5% acetonitrile 3 min, to 50% in 2 min, to 85% in 15 min, held 3 min, 100 µL/min
Details: column: Zorbax Extend-C18 2.1 x 50 mm; eluents: water / acetonitrile, 0.1% formic acid
Procedure, shortened: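 Pure standards were analyzed in mixtures of ~100 molecules using HPLC coupled to a quadrupole time-of-flight mass spectrometer, in both positive and negative ionization mode. Separation used a Zorbax Extend-C18 column (2.1 × 50 mm, 1.8 μm) at 100 μL/min, with water and acetonitrile each containing 0.1% formic acid. Dead and dwell volumes were 40 μL and 900 μL, and data were collected over 3 months. Retention time was read from computationally picked adduct peaks, each inspected manually.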

| Compound | RP-LC retention time [s] |
| --- | --- |
| CCCn1c(CCNC(=O)c2ccc(F)cc2)nc2cccnc21 | 651 |
| CCc1ccc(NS(=O)(=O)c2cc3c(s2)CCN(C(=O)C2CC2)C3)cc1 | 864 |
| Cn1cnc2c(C(=O)N3CCN(C4CCCCC4)CC3)nn(-c3ccc(Cl)cc3)c2c1=O | 654 |
| COc1ccc(-c2noc(CN3CCC(C(=O)NC4CCCCC4)CC3)n2)cc1OC | 670 |
| O=C(CN1CCC2(CC1)N=C(c1ccc(F)cc1)C(=O)N2)Nc1ccc(F)cc1F | 666 |
| CC(C)CNS(=O)(=O)c1cc(-c2nc(CC(C)C)cs2)cs1 | 1170 |
| COc1ccccc1CCC(=O)NC1(c2nc(-c3cccnc3)no2)CCCCC1 | 956 |
| CCCC(C)c1nnc(NC(=O)C2CCN(C(=O)c3cccc(F)c3)CC2)s1 (centres undefined) | 831 |
| COc1ccccc1NC(=O)N1C[C@@H](F)C[C@H]1C(=O)N1CCCCC1 | 677 |
| Cn1ccc2c(cc(C(=O)N3CCN(c4ccccn4)CC3)n2C)c1=O | 560 |
| Cc1cc(F)ccc1NC(=O)c1c(O)c2cccnc2n(-c2ccccc2)c1=O | 1280 |
| C=CCSc1n[nH]c(-c2cccs2)n1 | 792 |
| O=S(=O)(c1ccccc1Cl)N1CCc2nc(-c3ccc(Cl)cc3)ncc2C1 | 1180 |
| COc1ccc(C)cc1NC(=O)Cn1c(=O)cc(-c2nc(C3CC3)no2)c2ccccc21 | 1050 |
| Cc1ccc(CNC(=O)N2CCC(n3c(C(F)(F)F)nc4cccnc43)CC2)cc1 | 844 |
| CCc1cccc(C)c1NC(=O)Cn1c(CC)nc2c(c1=O)CN(Cc1ccccc1)CC2 | 677 |
| O=C(Cc1c[nH]c2ccccc12)NCC1CCN(c2cc(-c3ccncc3)[nH]n2)CC1 | 595 |
| O=C(N[C@H]1C[C@@H]2C[C@H]1CN2C(=O)Nc1ccc(C(F)(F)F)cc1)c1cccs1 | 840 |
| CCOC(=O)c1noc2nc(C)nc(Nc3cc(C)cc(C)c3)c12 | 1060 |
| CCOC(=O)N1CCN(C(=O)CN2CCC(COCc3ccccc3)CC2)CC1 | 571 |
| O=S(=O)(Nc1ccc(Cn2cncn2)cc1)c1ccccc1Br | 708 |
| O=C(CN1CCCCCC1)N1CCC2(CCC2O)CC1 (centres undefined) | 555 |
| CCCCN1C(=O)CN(S(=O)(=O)c2ccccc2)CC1(C)C(=O)NCc1ccc(F)cc1 (centres undefined) | 945 |

| Compound | RP-LC retention time [s] |
| --- | --- |
| CC(=O)N1CCc2c(c(CNC(=O)Cc3c(C)noc3C)nn2C)C1 | 570 |
| Cc1nc2cc(-c3noc(-c4ccc(C(F)(F)F)cc4)n3)ccc2o1 | 1210 |
| CC(C)(C)c1cc(C(=O)NCc2cccs2)nc2ccnn12 | 1110 |
| O=C(NCCN1CCOCC1)c1cc2n(n1)CCCN(Cc1ccc(Cl)cc1)C2=O | 629 |
| CCN1c2cc(F)ccc2C(=O)NC12CCN(C(=O)c1ccc(OC)cc1)CC2 | 780 |
| Cc1ccc(CNC(=O)C2CCN(c3cncnc3N3CCOCC3)CC2)cc1 | 631 |
| Cn1nc(C(=O)N2CCCCC2)c2c1CCN(C(=O)CCC(=O)NCCN1CCCC1)C2 | 578 |
| CCOCCCNC(=O)CN1c2ccc(CC)cc2-c2ccccc2S1(=O)=O | 926 |
| COc1ccc(F)cc1S(=O)(=O)N1CCCC(Cn2c(C)nc3cccnc32)C1 (centres undefined) | 680 |
| COCC(=O)Nc1cc2c(cc1N(C)C)n(C)c(=O)c(=O)n2C | 606 |
| CCCS(=O)(=O)N1CCC(F)(c2nc(-c3ccccc3)no2)CC1 | 1080 |
| CC1CCN(S(=O)(=O)c2ccc3nn(Cc4ccccc4Cl)c(=O)n3c2)CC1 | 1040 |
| CCOc1ccc(NC(=O)c2cnc(N3CCN(C4CCCCC4)CC3)nc2N)cc1 | 662 |
| Cc1ccc(-c2nnc(N3CCC(C(=O)NCC4CCCCC4)CC3)o2)cc1 | 959 |
| Cc1cccc(C2CN(C)CCc3c2cc(O)c(O)c3Cl)c1 (centres undefined) | 648 |
| CCCC(=O)N1CCN(c2nc3ccccc3nc2C(F)(F)F)CC1 | 1020 |
| O=C(c1c(-c2ccccc2)nnc2ccccc12)N1CCN(c2ncccn2)CC1 | 773 |
| O=C(O)c1nc(N2CCCC2)c2oc3ccccc3c2n1 | 617 |
| CC1=C(c2ccc(C)c(C)c2)S(=O)(=O)N=C1N1CCCN(C(=O)C(C)C)CC1 | 854 |
| CCN1CCN(c2cc(C(=O)O)c3cc(NC(=O)C4CCC4)ccc3n2)CC1 | 565 |
| CSc1ccccc1NC(=O)C(=O)NCC1CCN(Cc2ccco2)CC1 | 579 |
| O=c1c2cc(-c3ccc(Br)cc3)nn2cnn1Cc1nc(-c2ccc3c(c2)OCO3)no1 | 1160 |
| CC(C)n1c(=O)oc2cc(-c3noc(-c4ccc(Br)cc4)n3)ccc21 | 1350 |

| Compound | RP-LC retention time [s] |
| --- | --- |
| COc1ccc(N2CCN(CCNc3cc(C(=O)O)c4ccccc4n3)CC2)cc1 | 919 |
| O=S(=O)(c1cccn2c(SCc3ccccc3Cl)nnc12)N1CCCC1 | 880 |
| O=C(O)c1cn(Cc2ccccc2)c(=O)c2ccccc12 | 788 |
| CCCn1cc(C2=CCN(S(=O)(=O)c3ccc(F)c(Cl)c3)CC2)c2cccnc21 | 1190 |
| COc1cc(OC)cc(-n2nnc(-c3nsc(Nc4ccc(OC)c(OC)c4)n3)c2C)c1 | 933 |
| N#Cc1ccc(NC(=O)c2noc3c2CCCCC3)cc1 | 995 |
| O=C(NCc1ccco1)c1coc(NC(=O)C2CC2)n1 | 600 |
| CCOC(=O)C1=C(CN2CC(C)CC(C)C2)NC(=O)NC1c1ccc(OC(C)C)cc1 (centres undefined) | 708 |
| Cc1ccc(N2C(=O)C3N=NN(Cc4nc(-c5ccc6c(c5)OCO6)no4)C3C2=O)cc1 (centres undefined) | 957 |
| COc1ccc(CNC(=O)C2(C)Cn3cnc(C(=O)N4CCc5ccccc54)c3C(=O)N2C2CC2)cc1 (centres undefined) | 741 |
| Cc1ccc(C)c(-c2nc(-c3ccc4c(c3)oc(=O)n4C(C)C)no2)c1 | 1190 |
| CCn1cnnc1C1CCN(C(=O)C2(c3ccc(OC)cc3)CC2)CC1 | 599 |
| Cc1cc(C)cc(NC(=O)C2CCN(c3c(C(=O)N4CCC(C)CC4)cnc4snc(C)c34)CC2)c1 | 1100 |
| Cc1ccc(C)c(N2CCN(C(=O)c3ccc4c(c3)NC(=O)C3CCCCN43)CC2)c1 (centres undefined) | 1050 |
| CC1CCN(C(=O)c2cc(S(=O)(=O)N3CCC(C(=O)NC4CC4)CC3)cn2C)CC1 | 681 |
| Cc1ccc(S(=O)(=O)N2CCC(F)(c3nc(CC(C)C)no3)CC2)cc1F | 1200 |
| O=C(NCc1ccco1)N1CCc2nn(Cc3ccccc3)c(=O)n2CC1 | 687 |
| Cc1ccc(CNC(=O)CCc2ccc3nc(-c4ccccc4)[nH]c3c2)o1 | 625 |
| COc1ccc2c(C)c(C(=O)Nc3ccc4cn[nH]c4c3)oc2c1 | 794 |
| COCCC1CCN(C(=O)CN(C)C(=O)c2ccsc2)CC1 | 655 |
| Clc1ccccc1-c1csc(Cc2nc(-c3ccc4c(c3)OCO4)no2)n1 | 1200 |
| CCOC(=O)c1c(C)[nH]c(C(=O)N2CCC(C(C)C(=O)NCc3ccc(F)cc3)CC2)c1C (centres undefined) | 805 |
| Cc1ccsc1C(=O)N1CCC2(CCCCO2)CC1 | 780 |

| Compound | RP-LC retention time [s] |
| --- | --- |
| O=C(Cn1c(=O)c(CCC(=O)NC2CC2)nc2ccccc21)Nc1cc(F)cc(F)c1 | 774 |
| CCc1nc(-c2csc(S(=O)(=O)N3CCCC(C(=O)NC4CCCCC4)C3)c2)no1 (centres undefined) | 1020 |
| COC[C@@H]1CN(S(=O)(=O)c2ccccc2)C[C@H]1c1ccncc1 | 624 |
| CC(CCc1ccccc1)NC(=O)c1ccccc1NC(=O)C1=CSCCO1 (centres undefined) | 1080 |
| COc1ccc(-c2nc3cnccn3c2Nc2ccc(C(=O)NCC3CCCO3)cc2)cc1OC (centres undefined) | 645 |
| CCC(CC)C(=O)N1CCCC(Cn2c(C3CC3)nc3cccnc32)C1 (centres undefined) | 682 |
| Cc1ccc(S(=O)(=O)N2CCC3(CC2)NCCN=C3NCc2cccc(F)c2)cc1C | 745 |
| Cc1ccc2nc(-c3ccc(Cl)cc3)c(Nc3ccc(Cl)cc3)n2c1 | 831 |
| Cn1nc(C(=O)N2CCCC(C(=O)Nc3ccccc3)C2)c2c1CCN(C(=O)c1cccc(F)c1)C2 (centres undefined) | 756 |
| CSc1ccc(-c2noc(Cn3ncn4nc(-c5cccs5)cc4c3=O)n2)cc1 | 1130 |
| CC(=O)N1CCC(C2CCN(S(=O)(=O)c3ccc(Cl)s3)C2)CC1 (centres undefined) | 761 |
| Cc1cn2c(CCC(=O)NCCn3nc(-c4ccco4)ccc3=O)csc2n1 | 539 |
| Cc1ccc(/C=C/C(=O)N2CCC(c3cc(N)on3)CC2)cc1 | 751 |
| COc1ccc(-c2csc(Nc3ccc(C(=O)O)cc3)n2)cc1 | 876 |
| Cc1noc(C)c1S(=O)(=O)N1CC(c2nnc(-c3ccncc3)o2)C2(CCOCC2)C1 (centres undefined) | 663 |
| O=C(c1cc(-c2ccccn2)n[nH]1)N1CCN(C(=O)C2CCCCC2)CC1 | 659 |
| Cc1noc(C2CN(C(=O)Nc3c(F)cccc3F)CC23CCOCC3)n1 (centres undefined) | 654 |
| CN1CCCCCCN(C(=O)c2ccsc2)[C@H]2CCC[C@H]2C1=O | 797 |
| COc1cccc(NC(=O)N2CCC3(C2)C(=O)N(C)c2ccccc23)c1 (centres undefined) | 760 |
| CCN(CC)C(=O)c1ccc2c(c1)N(CC(=O)NC1CCCCC1)C(=O)CS2 | 761 |
